Measured values from US6153190A, “Erythropoietin receptor antibodies” (priority 1997, dated 2000).

Legend:
Assay type in all cases: cell-based
erythropoietin (Epo) [1] = assay: Inhibition of Epo-induced CFU-E colony formation; settings: murine bone marrow CFU-E; stated for all three assays
Procedure: A third assay for measuring the ability of Epo to stimulate the differentiation of murine bone marrow cells to hemoglobin producing mature erythrocytes (CFU-E assay) was performed as described below.
Murine bone marrow cells were flushed from the femur of female B2D6F1 mice. The marrow cells (1×10^5 cells/ml final concentration) were mixed with IMDM, 25% FCS (final) and methylcellulose (0.8% final). 0.4 ml cells was plated per well of 24-well TC plate. EpoRFc (40 ul/well) samples were added and Epo (1 U/ml) was added to each well. Plates were incubated at 37° C., 5% CO2, 6% O2 for two days.
CFU-E colonies containing 8 or more red cells were counted. The mean and standard error of triplicate samples were determined and data reported as the percent of the positive (1 U/ml) Epo control. The results of this assay are illustrated in FIG. 3.

erythropoietin (Epo) [2] = assay: Inhibition of Epo-induced proliferation of 32D/Epo wt cells; settings: stated for all three assays
Procedure: Another assay was performed for the measurement of Epo activity on the proliferation of 32D/Epo wt cells (Miura, O. et al., Mol. Cell. Biol., 13:1788-1795 (1993)). 32D/Epo wt is an IL-3 dependent cell line transfected with the human Epo receptor.
This assay is performed as described in Part A above, with the modification that the each well contains 1 U/ml Epo. The results of this assay are illustrated in FIG. 2.

erythropoietin (Epo) [3] = assay: Inhibition of Epo-induced proliferation of UT7-Epo cells; settings: stated for all three assays
Procedure: An assay for the measurement of Epo activity on the proliferation of UT7Epo cells, which are dependent on Epo for growth [Komatsu et al., Blood, 82:456-464 (1993)] was performed as follows. The Epo used in the experiment is Epogen (2000 U/ml) [Amgen, Thousand Oaks, Calif.], diluted in phosphate buffered saline (PBS) and human serum albumin (HSA) for storage at 4° C. at 200 U/ml. Dilutions of cleaved EpoR or EpoRFc protein samples were made, so that final concentrations ranged from 0.001 to 100 ng/ml.
Samples of either EpoR or EpoRFc were added to wells at 10 ul/well in quadruplicate. Epo (0.2 U/ml) was added to each well. UT7Epo cells (1×10^5 cells/ml) were plated at 100 ul/well. After the plates were incubated at 37° C. for three days, 10 ul/well of ^3 H-thymidine (diluted to […] in IMDM+10% fetal calf serum (FCS)) were added to a final concentration of 10 uCi/ml. Plates were incubated at 37° C. for four hours with ^3 H-thymidine. The 96-well plates were harvested onto glass fiber filters using the Tomtec plate harvester with 10% cold TCA and cold 95% ethanol. Solid scintillant was melted onto the filters and the samples counted. The mean and standard error of quadruplicate samples was determined.
The data were reported as the percent of positive (0.2 U/ml) Epo control and are illustrated in FIG. 1.

Measured: neutralization of the biological activity of Epo

EpoR: monomeric EpoR extracellular domain protein cleaved from EpoRFc with Factor Xa
able to bind, and thereby neutralize: erythropoietin (Epo) [1] | erythropoietin (Epo) [2] | erythropoietin (Epo) [3]
